Source: patent publication US5334595A, “Pyrazoloquinolones as anticancer agents” (priority 1992, dated 1994)
Like-named read-outs stand apart in the source and are kept apart here.

Columns and labels:
[1] = In vivo antitumor assay, P388(ip); design: species or system mice; settings: mouse, in vivo, qd 1,5,9
Description: (§1) Mice: Inbred: C3H/He and NCR-nu; and Hybrids: B6D2F1 (C57BL/6 females×DBA/2 males, CD2F1 (Balb/c females×DBS/2 males) and B6C3fl (C57BL/6×C3H) were bred at Wayne State University from strains obtained from the Frederick Cancer Research Facility, Frederick, Maryland or purchased from commercial suppliers.
(§2) Tumors: Murine Tumor: P388 and an adriamycin-resistant (ADR) subline P388/ADR leukemia and the following transplantable solid tumors of mice were used for in vivo testing: B16 melanoma (B16), pancreatic ductal adenocarcinoma No. 03 (Pane 03), colon adenocarcinoma No. 38 (colo 38), lung carcinoma No. 12 (LC 12), mammary ductal adenocarcinoma No. 16/C (Mam16C) and an adriamycin-resistant subline Mam16C/ADR. Human tumor: A single human tumor, mammary carcinoma MX-1 was used for in vivo testing. All tumors are in the Developmental Therapeutics Program frozen tumor respository, maintained by the Biological Testing Branch, Frederick Maryland. Each has a detailed description, code identification number, and list of references at the National Tumor Repository. Murine tumors were maintained in the mouse strain of origin and were transplanted in the appropriate F1 hydrid (or the strain of origin) for therapy trials. Human mammary carcinoma MX-1 (MX1) was maintained as a subcutaneous implant in either athymic Swiss (Cr: NIH(S)-nu) or athymic random bred (NCR-nu) mice and transplanted in NCR-nu for therapy trials.
(§3) For P388 and P388/ADR leukemia studies the tumor cells were implanted either interperitoneally (IP) or intravenously (IV) on day zero and treatment was started on day one. For B16 melanoma (B16) studies, the tumor cells were implanted IP on day zero and treatment was started on day one. Titered controls were also included to facilitate the calculation of tumor cell kill. For mammary carcinoma MX-1 studies, tumors were implanted with 1) subcutaneously (sc) (14-mg fragment of sc donor tumor) in the axillary region or 2) under the subrenal capsule (SRC) (10×10×10 ocular micrometer unit fragment of sc donor tumor).
(§4) Quantitative end points used to assess antitumor activity included % Increased Life Span (% ILS), Tumor Cell Kill (Log10 kill), and Tumor Growth Inhibition (T/C). Long Term Survivors (45 or 60 day) were excluded from calculations of %ILS and Tumor Cell Kill.
(§5) Endpoints were calculated as follows: [formula] where Dt is the median day of death for treated and Dc is the median day of death for control groups. A % ILS ≥20 or ≥25 for P388 and B16 intraperitoneal models, respectively, is indicative of a significant degree of antitumor activity. A % ILS ≥75 or ≥50 for P388 and B16 intraperitoneal models, , respectively, is indicative of a high degree of antitumor activity and is the level used by National Cancer Institute to justify further development if other requirements are met (termed DN-2 level activity). Minimum quantitative activity limits for additional P388 models (e.g. P388/ADR and P388, IV) have not been defined.

P388 leukemia = experiment: In vivo antitumor assay, P388(ip); design: species or system mice; settings: qd 1,5,9
Description: as §1, §2, §3, §4, §5

[2] = In vivo antitumor assay, Panc03(sc); design: species or system mice; settings: mouse, in vivo
Description: as §1, §2
Chemotherapy: For pancreatic ductal adenocarcinoma No. 3, colon adenocarcinoma No. 38 (colo 38), lung carcinoma No. 12 LC 12) and both adriamycin-sensitive (RP) and-resistant (ADR) mammary ductal adenocarcinoma No. 16 (Mam16) tumors, bilateral tumor implants were used to help ensure a more uniform tumor burden per mouse (thus reducing the requirement for greater numbers of mice per group). The animals necessary to begin an experiment were pooled, implanted bilaterally s.c. on day zero with 30-60 mg tumor fragments using a 12-gauge trocar, and again pooled before randomization to the various treatment and control groups. Chemotherapy was started within three days after tumor implantation while the number of cells per mouse was relatively small (1×10^7 -1×10^8 cells).
as §4
The log10 cell kill was calculated from the following formula: [formula] where T-C is the tumor difference in the median day of death between the treated (T) and the control (C) groups and Td is the tumor doubling time (in days), the latter estimated from the best fit straight line from a log-linear growth plot of the control-group tumors in exponential growth. The conversion of the T-C values to log10 cell kill is possible because the Td for tumors regrowing post-treatment approximated the Td values of the tumors in untreated control mice.
Tumors were measured with a caliper once or twice weekly (as needed) until either tumors exceeded 1600 mg or cure was assured. Tumor weights were estimated from two-dimensional measurements: Tumor Weight (mg)=(a×b^2) / 2, where a and b are the tumor length and width (ram) respectively. Measurements were carried out simultaneously in both treatment and control groups. When the control group tumors reached approximately 750-1500 mg in size (median of group), the median tumor weight of each group was determined (including zeros). The T/C value in percent is an indication of antitumor effectiveness. The % T/C was calculated from the following formula for solid murine tumor models: [formula] where T and C are median tumor weights of the treatment and control groups, respectively. A T/C equal to or less than 42% is considered significant antitumor activity. […]

[3] = test system: P388 murine leukemia cells; experiment: In vitro cytotoxicity, continuous (48-hour) exposure of P388 cells; type: cell-based; settings: Mus musculus, read-out: in vitro cytotoxicity IC50, cont. exp.
Protocol: In vitro cytotoxicity was assayed by determining cell survival following exposure of P388 murine leukemia cells to a range of test compound concentrations. Cytotoxicity was quantitated following either a one-hour exposure or continuous exposure of P388 cells to test compound.
A Manual of Basic Technique. […] Briefly, following drug exposure cells were plated in soft agar and incubated (37°, 5% CO2) for 7-10 days during which time viable cells form visible colonies. Cytotoxicity following continuous exposure of cells to test compound was assayed by quantitating total P388 cells on a Coultier Counter following a 48-hour co-incubation of test compound with cells. P388 cells were maintained in log phase throughout the duration of cytotoxicity assays.
The percentage of cells surviving relative to an untreated control was graphed as a function of increasing drug concentration.

[4] = P388, continuous exposure (48-hour)

Row | Compound | MTD ([1]; drug ip) | MTD ([1]; drug iv) | ILS % (P388 leukemia; drug ip) | Log Kill (P388 leukemia; drug ip) | ILS % (P388 leukemia; drug iv) | Log Kill (P388 leukemia; drug iv) | MTD ([2]; MTD) | MTD ([2]; iv, MTD) | IC50 [3, 4] | IC50 ([3]; P388, 48 h) | MTD ([2]; iv, Panc03(sc), drug iv, qd 3,4, exp 1005A, read-out: MTD) | MTD ([2]; iv, Panc03(sc), drug iv, qd 3,6,9, exp 1146, read-out: MTD) | MTD ([2]; iv, Panc03(sc), drug iv, qd 3, exp 895A, read-out: MTD) | MTD ([2]; iv, Panc03(sc), drug iv, qd 3-9, exp 910, read-out: MTD)
1 | Cc1cc(-c2c(F)cc3c4nn([C@H]5CC[C@H](N(C)C)CC5)c(=O)c-4cn(C4CC4)c3c2F)cc(C)n1 [Example 51b] | 66 mg/kg | 120 mg/kg | 85% | 6.2 | 85% | 6.2 | > 390 mg/kg | – | – | – | – | – | – | –
2 | Cc1cc(-c2c(F)cc3c4nn([C@H]5CC[C@@H](N)CC5)c(=O)c-4cn(C4CC4)c3c2F)cc(C)n1 [Example 56a, 2-(Cis-4-Aminocyclohexyl)-5-cyclopropyl-6,8-difluoro-2,5-dihydro-7-(2,6-dimethyl-4-pyridinyl)-3H-pyrazolo-[4,3-c]quinolin-3-one] | – | – | – | – | – | – | – | 110 mg/kg | – | – | – | – | – | –
3 | Cc1cc(-c2c(F)cc3c4nn(CCNCCO)c(=O)c-4cn(C4CC4)c3c2F)cc(C)n1 [Example 17] | 180 mg/kg | 120 mg/kg | 50% | 3.5 | 5% | 0.35 | 1410 mg/kg | – | 1.2 µM | – | – | – | – | –
4 | Cc1cc(-c2c(F)cc3c4nn([C@H]5CC[C@@H](N(C)C)CC5)c(=O)c-4cn(C4CC4)c3c2F)cc(C)n1 [Example 51a] | 9.9 mg/kg | 39.9 mg/kg | 65% | 4.7 | 70% | 5.1 | – | 63 mg/kg | – | – | – | – | – | –
5 | Cc1cc(-c2c(F)cc3c4nn(CCN(C)C)c(=O)c-4cn(C4CC4)c3c2F)cc(C)n1.O=C(O)/C=C/C(=O)O [Example 1, 5-Cyclopropyl-6,8-difluoro-2,5-dihydro-2-[2-(dimethylamino)-ethyl]-7-(2,6-dimethyl-4-pyridinyl)-3H-pyrazolo[4,3-c]quinolin-3-one (E)-2-butendioate (1:1)] | 78 mg/kg | 117 mg/kg | 155% | 11 | 170% | 12 | – | – | – | 0.04 µM | 52 mg/kg | 34 mg/kg | 35 mg/kg | 45 mg/kg
6 | Cc1cc(-c2c(F)cc3c4nn(CCCN(C)C)c(=O)c-4cn(C4CC4)c3c2F)cc(C)n1 [Example 14] | 42 mg/kg | 64 mg/kg | 85% | 6.1 | 70% | 5.0 | – | 107 mg/kg | 0.38 µM | – | – | – | – | –
